The values below come from US20170215419A1, “ANTHRANILAMIDE SEED TREATMENT COMPOSITIONS AND METHODS OF USE” (priority 2014, published 2017).

The test system of series [1] is black cutworms. Description: Black cutworm mortality after 10 DAI, leaf feeding bioassay (Table 4). Format: in vivo, Agrotis ipsilon. As for the experimental part: (§1) Efficacy of chlorantraniliprole against high pressure of black cutworms, and plant stand protection (15 DAP) was tested (FIG. 5). In addition, efficacy of chlorantraniliprole for healthier stand and longer seedling protection against black cutworms (9 DAI) was also tested (FIG. 6). See also Tables 3 and 4 for increased mortality rates of cutworms with chlorantraniliprole alone and in combination with other insecticides. Mortality of 3rd instar black cutworms, which were exposed to corn leaf samples in in-vivo leaf feeding bioassays, was recorded at specific evaluation dates. The leaf samples were collected from treated corn seed according to the treatment in Tables 3-4.

For series [2], the system named is wireworm. Description: Corn yield, stand and runts on fields with wireworm pressure (Tables 5, 6). The settings on record: for Yield bu/ac: 250 μg AI/seed. Format: in vivo.
Series [3] relates to black cutworms. The series can be described thus: Cutworm mortality and residual control, leaf feeding bioassay on leaves from treated corn seed (Table 3). The class given is in vivo, Agrotis ipsilon. The procedure: as §1
(§2) All treatments included a combination of fungicides (Fludioxonil, Mefenoxam, Azoxystrobin, Thiabendazole). Soil Texture was fine clay loam; insect species: Agrotis ipsilon; infestation: 2, 3rd instar larva/plant; Plot size: 6 rows×20 feet; Seeding rate: 39,000/acre; Experimental design: Randomized Complete Block (RCB); 9 trtms×4 rep.

In series [4] the test system is white grub. The series can be described thus: Efficacy against white grub and impact on corn yield (FIG. 3, 4). The conditions noted are these: added to BASE ST, compared to BASE ST alone. The class given is in vivo, Japanese Beetle larvae.
Series [5] has as its system wireworm. The series can be described thus: Field efficacy against wireworm and impact on corn yield, vigor and stand (FIG. 1, 2). Format: in vivo. The procedure:
Efficacy of chlorantraniliprole against wireworm (30 DAP) and impact on corn yield were tested (FIG. 1) based on data from 4 Locations. Unless indicated otherwise in this Example or in any other Example herein, “BASE ST” included Fludioxonil, Mefenoxam, Azoxystrobin, Thiabendazole (fungicides), Thiamethoxam (insecticide) and biological amendments (B. subtilis, and B. simplex). The BASE ST may also include other fungicides.
Efficacy of chlorantraniliprole was also tested against high wireworm pressure locations for plant vigor and yield and stand protection (FIG. 2 A-B). “FST” indicates fungicide seed treatment.
The chlorantraniliprole was applied at a concentration of 0.25 mg ai/seed and other commercially available insecticides and/or fungicides were applied at the labeled rates. […] In an embodiment, the BASE ST included thiamethoxam at 250 μg AI/seed.

For series [6], the system named is wireworms. The series can be described thus: Growth chamber wireworm bioassay on treated corn seed (FIG. 9). Format: in vivo, Melanotus spp. The settings on record: 250 to 750 μg AI/seed; corn at V3-V4; vs untreated check. The procedure: In addition, the efficacy of corn seed treated with chlorantraniliprole to protect seeds and seedlings from soil pests such as wireworms was determined at a growth chamber. A total of 8 repetitions were conducted and the following evaluations were observed:
Evaluations: 1. Emergence; 2. Wireworm damaged plants; 4. Wireworm mortality; 5. Fresh plan weight
Bioassays were conducted in a growth chamber in using field-collected Melanotus spp. wireworms. […] weighted wireworms were individually placed into plastic pots containing filtered field-collected soil and one corn seed for a total of 48 wireworms in 8 pots for each treatment The containers were maintained at 20±2° C., 40 to 70% RH, and a photoperiod of 10:14 (L:D), and were watered daily.
The following seed treatment combinations were used and the results are shown in FIG. 9: Chlorantraniliprole at 250 to 750 μg AI/seed; thiamethoxam (IST) at 250 μg AI/seed; and clothianidin (+Bacillus firmus 1-1582) at 1250 μg AI/seed.

The test system of series [7] is black cutworms. The series can be described thus: Field efficacy against high pressure of black cutworms, plant stand protection (FIG. 5, 6). The class given is in vivo, Agrotis ipsilon. The procedure: as §1, §2
Where [8] appears, read: Table 6, fields with constant wireworm pressure, N = 7.
Where [9] appears, read: seed treatment 250 μg AI/seed, 3rd instar black cutworms on corn leaf samples.
Setting [10] is: seed treatment 250 μg AI/seed, residual control.
The mark [11] stands for this setting: seed treatment 500 μg AI/seed (clothianidin 500).
Setting [12] is: added to BASE ST, compared to FST alone, high wireworm pressure.

Turning to `CN1COCN(Cc2cnc(Cl)s2)/C1=N\[N+](=O)[O-]` [Thiamethoxam, reference compound], the Mortality % in series [1] (seed treatment 250 μg AI/seed) amounted to 22.92%. In series [2] (setting [8]), the Yield bu/ac was 173.3 bu/ac. The runts in series [2] (seedling stage, wireworms, each active at 250 μg AI/seed) was determined as 8.8%. Also, the “Mortality % 12 DAP” value in series [3] (setting [9]) turned out to be 95.83%. In addition, the “Mortality % 39 DAP” value in series [3] (setting [10]) is reported as 31.25%.

Regarding `CN/C(=N\[N+](=O)[O-])NCc1cnc(Cl)s1` [Clothianidin, reference compound], in series [1] (setting [11]), the Mortality % was determined as 93.75%. In addition, in series [3] (setting [11]), the “Mortality % 12 DAP” value was 97.92% and the “Mortality % 39 DAP” value was determined as 25.00%.

For `CNC(=O)c1cc(Cl)cc(C)c1NC(=O)c1cc(Br)nn1-c1ncccc1Cl` [Chlorantraniliprole, 3-bromo-N-[4-chloro-2-methyl-6-[(methylamino)carbonyl]phenyl]-1-(3-chloro-2-pyridinyl)-1H-pyrazole-5-carboxamide], the Mortality % in series [1] (seed treatment 250 μg AI/seed), in series [1] (setting [11]) and in series [1] (seed treatment 750 μg AI/seed) was 100.00% in each case. Further, the Yield bu/ac in series [2] (Table 5, fields with wireworm pressure) was found to be 172.3 bu/ac; in series [2] (setting [8]) it was 164.3 bu/ac. In addition, in series [2] (locations with wireworm infestations, chlorantraniliprole 250 to 750 μg AI/seed alone or with thiamethoxam 250 μg AI/seed), the corn grain yield entry is recorded as “increased corn grain yield”. Also, the grain yield result in series [4] was “increased grain yield”. Moreover, the “white grub count per 10 plants” value in series [4] (30 DAP, 3 locations) was “significantly reduced”. In addition, the corn yield result in series [5] (0.25 mg ai/seed added to BASE ST, compared to BASE ST alone) is “yield increase”. Moreover, the “wireworm count per 10 plants” value in series [5] (0.25 mg ai/seed added to BASE ST, compared to BASE ST alone, 30 DAP, 4 locations) is reported as “significantly reduced”. Besides, in series [5] (setting [12]), the plant vigor result is recorded as “significantly increased”. The stand protection entry in series [5] (setting [12]) is on record as “protected stand”. In addition, the yield result in series [5] (added to BASE ST, compared to FST alone, high wireworm pressure (FIG. 2A)) was “increased significantly”. Besides, in series [6], the fresh plant weight entry is on record as “significantly higher plant weight than the untreated check/control”. For the same molecule, in series [7] (9 DAI (FIG. 6)), the “stand and seedling protection against black cutworms” value was “increased healthier stand and longer seedling protection”. For the same molecule, in series [7] (compared to FST alone, black cutworm), the “reduction in plant mortality” value is listed as 62%. In addition, the “black cutworm damage to corn plants” value in series [7] (high black cutworm pressure, 15 DAP) is on record as “significantly reduced”. In addition, the “Mortality % 12 DAP” value in series [3] (setting [9]), in series [3] (setting [11]) and in series [3] (seed treatment 750 μg AI/seed) was 100.00% in each case. In addition, the “Mortality % 39 DAP” value was determined as 32.95% in series [3] (setting [10]), 31.25% in series [3] (setting [11]) and 21.11% in series [3] (seed treatment 750 μg AI/seed).
